Experimental data as given in the NIST ThermoML archive (doi:10.1016/j.jct.2016.10.033).

Test: refractive index (Na D-line) (dimensionless); xn = mol fraction of the nth substance listed
Details: 103 kPa, Liquid, Standard Abbe refractometry

C=C[Si](C)(OCC)OCC [methylvinyldiethoxysilane] + CO[Si](C)(OC)c1ccccc1
refractive index
Details | 298.15 K | 303.15 K | 308.15 K | 313.15 K | 318.15 K
x2 = 0 | 1.39751 | 1.39501 | 1.39249 | 1.38997 | 1.38742
x2 = 0.05 | 1.40161 | 1.39911 | 1.3966 | 1.39407 | 1.39153
x2 = 0.1001 | 1.40569 | 1.40322 | 1.40071 | 1.39819 | 1.39567
x2 = 0.1499 | 1.40975 | 1.40729 | 1.40481 | 1.4023 | 1.39979
x2 = 0.2001 | 1.41382 | 1.41135 | 1.40888 | 1.40639 | 1.40391
x2 = 0.2501 | 1.41792 | 1.41547 | 1.413 | 1.41052 | 1.40804
x2 = 0.3 | 1.42192 | 1.41948 | 1.41702 | 1.41456 | 1.41207
x2 = 0.3499 | 1.42595 | 1.42352 | 1.42108 | 1.41864 | 1.41615
x2 = 0.4 | 1.42999 | 1.42755 | 1.42511 | 1.42265 | 1.4202
x2 = 0.4501 | 1.43404 | 1.43161 | 1.42919 | 1.42673 | 1.4243
x2 = 0.5 | 1.43801 | 1.43558 | 1.43316 | 1.43072 | 1.42827
x2 = 0.5499 | 1.44203 | 1.43961 | 1.43721 | 1.43477 | 1.43237
x2 = 0.6 | 1.44606 | 1.44365 | 1.44126 | 1.43884 | 1.43645
x2 = 0.65 | 1.44994 | 1.44754 | 1.44513 | 1.44272 | 1.4403
x2 = 0.6999 | 1.45398 | 1.45159 | 1.44922 | 1.44683 | 1.44442
x2 = 0.75 | 1.45797 | 1.45558 | 1.45323 | 1.45086 | 1.44847
x2 = 0.7999 | 1.46196 | 1.45958 | 1.45722 | 1.45484 | 1.45248
x2 = 0.85 | 1.46589 | 1.46352 | 1.46116 | 1.45878 | 1.45641
x2 = 0.8998 | 1.46999 | 1.46763 | 1.46528 | 1.4629 | 1.46054
x2 = 0.9499 | 1.47377 | 1.47142 | 1.46907 | 1.46672 | 1.46435

C=C[Si](OC)(OC)OC [trimethoxy(vinyl)silane] + CO[Si](C)(OC)c1ccccc1
refractive index
Details | 298.15 K | 303.15 K | 308.15 K | 313.15 K | 318.15 K
x2 = 0 | 1.39022 | 1.38775 | 1.38535 | 1.3829 | 1.38046
x2 = 0.05 | 1.3954 | 1.39299 | 1.39056 | 1.38815 | 1.38572
x2 = 0.1 | 1.40052 | 1.39811 | 1.39569 | 1.39329 | 1.39082
x2 = 0.1499 | 1.40552 | 1.40314 | 1.40073 | 1.3983 | 1.39588
x2 = 0.2 | 1.41045 | 1.40807 | 1.40568 | 1.40327 | 1.40083
x2 = 0.2501 | 1.41527 | 1.41288 | 1.41047 | 1.40809 | 1.40568
x2 = 0.2999 | 1.41998 | 1.41762 | 1.41524 | 1.41284 | 1.41043
x2 = 0.35 | 1.42465 | 1.42228 | 1.41987 | 1.4175 | 1.4151
x2 = 0.4001 | 1.42919 | 1.42683 | 1.42444 | 1.42208 | 1.41967
x2 = 0.4501 | 1.43364 | 1.43129 | 1.42891 | 1.42653 | 1.42413
x2 = 0.5 | 1.43793 | 1.43559 | 1.43321 | 1.43084 | 1.42843
x2 = 0.5499 | 1.44232 | 1.43996 | 1.43759 | 1.4352 | 1.43283
x2 = 0.6 | 1.44653 | 1.44418 | 1.44182 | 1.43943 | 1.43706
x2 = 0.6499 | 1.45067 | 1.44831 | 1.44594 | 1.44356 | 1.4412
x2 = 0.7 | 1.45459 | 1.45224 | 1.4499 | 1.44754 | 1.44517
x2 = 0.75 | 1.45871 | 1.45636 | 1.454 | 1.45165 | 1.44929
x2 = 0.8001 | 1.46249 | 1.46015 | 1.45778 | 1.45542 | 1.45307
x2 = 0.8498 | 1.46647 | 1.46413 | 1.46178 | 1.45942 | 1.45707
x2 = 0.8999 | 1.47026 | 1.46791 | 1.46557 | 1.46321 | 1.46087
x2 = 0.9499 | 1.47397 | 1.47163 | 1.46928 | 1.46693 | 1.46458
